Structures can show the parent of a compound that is named as a salt. Where two headings read alike, the source gives them in different places.
How the values were obtained:
β1-AR [1] = molecular target: T1, β1-AR (Homo sapiens, UniProt P08588); assay: β-arrestin-2 recruitment assay at β1-AR; format: cell-based; details: for β-arrestin-2 recruitment β1-AR Emax: relative to norepinephrine
Target sequence in this assay (P08588 whole entry): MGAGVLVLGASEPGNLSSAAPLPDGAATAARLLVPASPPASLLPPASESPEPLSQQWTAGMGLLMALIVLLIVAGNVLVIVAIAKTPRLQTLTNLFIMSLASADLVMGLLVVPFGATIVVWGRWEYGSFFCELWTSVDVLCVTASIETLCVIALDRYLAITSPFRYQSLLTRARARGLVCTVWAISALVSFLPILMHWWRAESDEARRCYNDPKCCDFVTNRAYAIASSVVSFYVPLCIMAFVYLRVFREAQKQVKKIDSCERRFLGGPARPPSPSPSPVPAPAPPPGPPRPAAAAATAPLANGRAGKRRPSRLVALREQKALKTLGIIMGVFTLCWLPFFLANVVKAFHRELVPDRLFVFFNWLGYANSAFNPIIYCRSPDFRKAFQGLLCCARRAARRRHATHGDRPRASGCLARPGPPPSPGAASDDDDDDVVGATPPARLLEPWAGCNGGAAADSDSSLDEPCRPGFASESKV
Target sequence in this assay (P32121 whole entry partner): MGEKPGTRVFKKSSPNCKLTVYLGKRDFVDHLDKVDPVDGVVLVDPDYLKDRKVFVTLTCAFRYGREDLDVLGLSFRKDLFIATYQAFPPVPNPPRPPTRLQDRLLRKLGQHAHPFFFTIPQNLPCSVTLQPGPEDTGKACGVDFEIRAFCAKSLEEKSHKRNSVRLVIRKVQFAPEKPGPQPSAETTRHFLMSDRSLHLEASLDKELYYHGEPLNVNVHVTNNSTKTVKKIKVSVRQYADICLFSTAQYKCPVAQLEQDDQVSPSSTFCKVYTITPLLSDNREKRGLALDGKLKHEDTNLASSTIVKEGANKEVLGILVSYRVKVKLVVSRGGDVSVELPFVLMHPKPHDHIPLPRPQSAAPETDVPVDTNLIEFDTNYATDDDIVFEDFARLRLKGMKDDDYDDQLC

β2-AR [2] = molecular target: T2, β2-AR (Homo sapiens, UniProt P07550); assay: β-arrestin-2 recruitment assay at β2-AR; format: cell-based; details: for EC50: ranges from screening experiments with a low number of repeats; for β-arrestin-2 recruitment β2-AR Emax: relative to norepinephrine
Target sequence in this assay (P07550 whole entry): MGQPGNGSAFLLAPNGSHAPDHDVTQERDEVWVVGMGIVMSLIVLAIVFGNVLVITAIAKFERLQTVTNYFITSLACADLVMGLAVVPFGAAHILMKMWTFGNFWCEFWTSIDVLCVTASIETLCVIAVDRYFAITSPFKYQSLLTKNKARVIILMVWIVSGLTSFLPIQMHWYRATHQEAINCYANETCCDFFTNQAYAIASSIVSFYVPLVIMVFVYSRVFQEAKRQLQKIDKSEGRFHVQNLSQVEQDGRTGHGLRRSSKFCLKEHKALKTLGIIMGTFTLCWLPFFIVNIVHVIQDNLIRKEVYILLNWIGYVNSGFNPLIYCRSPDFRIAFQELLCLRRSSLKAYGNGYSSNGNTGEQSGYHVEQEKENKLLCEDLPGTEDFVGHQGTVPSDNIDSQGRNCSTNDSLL
Target sequence in this assay (P32121 whole entry partner): as the sequence (P32121 whole entry partner) above

β1-AR [3] = molecular target: T1, β1-AR; assay: radioligand binding assay, β1-AR, [3H]CGP12177; details: values given as a range are from screening experiments with a low number of repeats
Protocol: (§1) The binding affinities of exemplary compounds of interest at β1AR and β2AR were evaluated in a binding assay.
Target sequence in this assay (P08588 whole entry): as the sequence (P08588 whole entry) above

α2A-AR = molecular target: T3, α2A-AR (Homo sapiens, UniProt P08913); assay: radioligand binding assay, α2A-AR, [3H]RX821002; details: radioligand [3H]RX821002; values given as a range are from screening experiments with a low number of repeats
T3 sequence (P08913 1-465): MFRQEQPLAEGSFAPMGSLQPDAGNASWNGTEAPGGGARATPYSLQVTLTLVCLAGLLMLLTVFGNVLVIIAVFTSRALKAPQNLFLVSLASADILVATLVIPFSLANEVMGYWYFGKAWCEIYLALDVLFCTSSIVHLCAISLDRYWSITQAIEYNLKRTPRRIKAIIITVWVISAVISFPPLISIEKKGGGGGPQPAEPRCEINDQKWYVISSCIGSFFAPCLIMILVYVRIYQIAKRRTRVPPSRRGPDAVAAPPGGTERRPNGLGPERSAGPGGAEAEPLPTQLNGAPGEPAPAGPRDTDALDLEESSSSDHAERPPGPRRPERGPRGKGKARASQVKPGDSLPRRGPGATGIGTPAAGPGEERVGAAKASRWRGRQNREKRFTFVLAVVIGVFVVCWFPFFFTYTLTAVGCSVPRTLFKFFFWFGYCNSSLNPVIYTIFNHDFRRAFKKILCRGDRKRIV

β2-AR [4] = molecular target: T2, β2-AR; assay: radioligand binding assay, β2-AR, [3H]CGP12177
Protocol: as §1
Target sequence in this assay (P07550 whole entry): as the sequence (P07550 whole entry) above

•1A-AR = molecular target: T4, •1A-AR (Homo sapiens, UniProt P35348); assay: radioligand binding assay, α1A-AR, [3H]prazosin
T4 sequence (P35348 1-466): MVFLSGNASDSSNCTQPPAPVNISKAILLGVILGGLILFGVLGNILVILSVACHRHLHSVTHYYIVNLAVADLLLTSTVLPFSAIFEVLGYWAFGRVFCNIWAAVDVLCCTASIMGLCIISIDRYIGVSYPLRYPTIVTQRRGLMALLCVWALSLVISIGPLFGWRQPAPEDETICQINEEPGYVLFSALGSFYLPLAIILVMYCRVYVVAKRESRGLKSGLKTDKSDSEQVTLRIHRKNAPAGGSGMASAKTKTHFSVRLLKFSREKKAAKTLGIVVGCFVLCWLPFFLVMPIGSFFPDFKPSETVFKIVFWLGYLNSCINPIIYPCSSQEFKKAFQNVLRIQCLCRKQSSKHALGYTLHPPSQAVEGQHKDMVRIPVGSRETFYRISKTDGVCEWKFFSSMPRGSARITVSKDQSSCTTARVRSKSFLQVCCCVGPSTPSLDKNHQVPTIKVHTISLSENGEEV

[5] = n.d. = could not be determined because of lack of activity, ranges from screening experiments with a low number of repeats, read-out: β-arrestin-2 recruitment β1-AR EC50
[6] = n.d. = could not be determined because of lack of activity, read-out: β-arrestin-2 recruitment β2-AR EC50
[7] = radioligand [3H]CGP12177, read-out: Ki β1-AR [3H]CGP12177
[8] = radioligand [3H]CGP12177, values given as a range are from screening experiments with a low number of repeats, read-out: Ki β2-AR [3H]CGP12177
[9] = radioligand [3H]prazosin, values given as a range are from screening experiments with a low number of repeats, read-out: Ki •1A-AR [3H]prazosin
[10] = β-arrestin-2 recruitment β2-AR EC50, n.d. = could not be determined because of lack of activity
[11] = Ki β1-AR [3H]CGP12177, radioligand [3H]CGP12177

Structure (SMILES)	β-arrestin-2 recruitment β1-AR Emax (β1-AR [1]) [% norepinephrine]	EC50 (β2-AR [2]; [6]) [µM]	β-arrestin-2 recruitment β2-AR Emax (β2-AR [2]) [% norepinephrine]	Ki (β1-AR [3]; [7]) [µM]	Ki (α2A-AR) [µM]	Ki (β2-AR [4]; [8]) [µM]	other results
Oc1ccc2c(c1O)CC[C@@H](NC1COC1)[C@@H]2O [LM 113, (5R,6R)-6-(oxetan-3-ylamino)-5,6,7,8-tetrahydronaphthalene-1,2,5-triol]	20	0.2 to 0.4	115	≥ 50	25 to 45	0.6 to 1.5	EC50 (β1-AR [1]; [5]): > 100 µM; Ki (•1A-AR; [9]): ≥ 60 µM
Oc1ccc2c(c1O)CC[C@@H](NCC1CCC1)[C@@H]2O [LM 110, (5R,6R)-6-((cyclobutylmethyl)amino)-5,6,7,8-tetrahydronaphthalene-1,2,5-triol]	25	–	116	51	9.9	0.17	EC50 (β1-AR [1]; [5]): 22 µM; EC50 (β2-AR [2]; [10]): 0.079 µM; Ki (•1A-AR): 4 µM
CC(C)N[C@@H]1CCc2c(ccc(O)c2O)[C@@H]1O [JS 3-99]	–	–	100	–	–	–	EC50 (β2-AR [2]; [10]): 1.2 µM; Ki (β1-AR [3]; [11]): 49 µM; Ki (β2-AR [4]; Ki β2-AR [3H]CGP12177): 1.9 µM
CN[C@@H]1CCc2c(ccc(O)c2O)[C@H]1O [AS443, (5R,6R)-6-(methylamino)-5,6,7,8-tetrahydronaphthalene-1,2,5-triol]	60	0.026	112	38	13	0.14	EC50 (β1-AR [1]; [5]): 38 µM; Ki (•1A-AR; [9]): 17 µM
CC(C)N[C@@H]1CCc2cc(O)c(O)cc2[C@H]1O (relative stereo) [JS 3-89, trans-2-(Isopropylamino)-1,2,3,4-tetrahydronaphthalene-1,6,7-triol trifluoroacetate]	–	–	–	> 50	–	> 50	–
Oc1ccc2c(c1O)CC[C@@H](NC(CF)CF)[C@@H]2O [LM 103, (5R,6R)-6-((1,3-difluoropropan-2-yl)amino)-5,6,7,8-tetrahydronaphthalene-1,2,5-triol]	18	0.64	109	10	53	0.63	EC50 (β1-AR [1]; [5]): 12 µM; Ki (•1A-AR; [9]): > 100 µM
Oc1ccc2c(c1O)CC[C@@H](NCCCF)[C@@H]2O [LM 75, (5R,6R)-6-((3-fluoropropyl)amino)-5,6,7,8-tetrahydronaphthalene-1,2,5-triol]	90	0.025	111	7.5	18	0.097	EC50 (β1-AR [1]; [5]): 10 µM; Ki (•1A-AR): 23 µM
CNC1CCc2c(ccc(O)c2O)C1 (racemic) [AS LM33]	<10	2.1	125	90	–	46	–
N[C@@H]1CCc2c(ccc(O)c2O)[C@H]1O [AS446, (5R,6R)-6-amino-5,6,7,8-tetrahydronaphthalene-1,2,5-triol×TFA]	56	–	107	16	15	0.68	EC50 (β1-AR [1]; [5]): 18 µM; EC50 (β2-AR [2]; [10]): 0.1 µM; Ki (•1A-AR): 18 µM
N[C@@H]1CCc2cc(O)c(O)cc2C1 [AS LM16]	<5	–	<5	83	–	76	–
NC1CCc2c(ccc(O)c2O)C1 (single isomer, unassigned) [AS LM27]	<5	2.1	84	46	–	7.6	–
CC(C)(C)CN[C@@H]1CCc2c(ccc(O)c2O)[C@H]1O [LM 117, (5R,6R)-6-(neopentylamino)-5,6,7,8-tetrahydronaphthalene-1,2,5-triol]	17	0.05 to 0.12	116	≥ 50	15 to 30	0.25 to 0.7	EC50 (β1-AR [1]; [5]): 10 to 20 µM; Ki (•1A-AR; [9]): 10 to 20 µM
O=C(O)C(F)(F)F.Oc1ccc2c(c1O)CC[C@H](NC1CCCC1)[C@H]2O [JS 3-51, (1 S,2S)-6-(cyclopentylamino)-5,6,7,8-tetrahydronaphthalene-1,2,5-triol trifluoroacetate]	–	0.12	93	27	–	0.24	–
O=C(O)C(F)(F)F.Oc1ccc2c(c1O)CC[C@@H](NC1CCCC1)[C@@H]2O [JS 3-159, (1R,2R)-6-(Cyclopentylamino)-5,6,7,8-tetrahydronaphthalene-1,2,5-triol trifluoroacetate]	–	0.018	97	7.1	–	0.025	–
CC(C)N[C@H]1CCc2c(ccc(O)c2O)[C@H]1O [AS424B, (R,S)-1,5,6-trihydroxy-N-isopropyl-1,2,3,4-tetrahydronaphthalen-2-aminium TFA]	–	–	91	–	–	–	EC50 (β2-AR [2]; [10]): 0.35 µM; Ki (β1-AR [3]; [11]): 24 µM; Ki (β2-AR [4]; Ki β2-AR [3H]CGP12177): 0.45 µM
CC(C)N[C@H]1CCc2c(ccc(O)c2O)[C@@H]1O [JS 3-97]	–	–	–	–	–	–	Ki (β1-AR [3]; [11]): > 50 µM; Ki (β2-AR [4]; Ki β2-AR [3H]CGP12177): 0.37 µM
CNC1CCc2cc(O)c(O)cc2C1 (racemic) [AS LM31]	<5	12	22	44	–	80	–
Oc1ccc2c(c1O)CC[C@@H](NC1CCCC1)[C@H]2O [JS 3-65, (1 S,2R)-6-(Cyclopentylamino)-5,6,7,8-tetrahydronaphthalene-1,2,5-triol trifluoroacetate]	–	–	–	> 50	–	2.5	–
NC[C@H](O)c1ccc(O)c(O)c1 [noradrenaline, reference compound]	100	–	100	–	–	–	–
Oc1ccc2c(c1O)CC[C@H](NC1CCCC1)[C@@H]2O [JS 3-55, (1R,2S)-6-(cyclopentylamino)-5,6,7,8-tetrahydronaphthalene-1,2,5-triol trifluoroacetate]	–	–	–	> 50	–	> 20	–
N[C@H]1CCc2cc(O)c(O)cc2C1 [AS LM15]	<5	–	<5	31	–	–	–
CC(C)N[C@H]1CCc2cc(O)c(O)cc2[C@H]1O (relative stereo) [JS 3-71, cis-2-(isopropylamino)-1,2,3,4-tetrahydronaphthalene-1,6,7-triol trifluoroacetate]	–	–	–	> 50	–	> 50	–
NC1CCc2c(ccc(O)c2O)C1 (single isomer, unassigned) [AS LM28]	<10	11	77	> 100	–	29	–
CC(C)N[C@@H]1CCc2c(ccc(O)c2O)[C@H]1O [AS424A, (R,R)-1,5,6-trihydroxy-N-isopropyl-1,2,3,4-tetrahydronaphthalen-2-aminium TFA]	82	–	103	–	71	–	EC50 (β1-AR [1]): 1.2 µM; EC50 (β2-AR [2]; [10]): 0.024 µM; Ki (β1-AR [3]; [11]): 2.1 µM; selectivity for β2-AR over β1-AR (β2-AR [4]): high selectivity; Ki (β2-AR [4]; read-out: Ki β2-AR [3H]CGP12177): 0.032 µM
